Source: patent publication US8487131B2 (Sanford-Burnham Medical Research Institute, priority 2009, dated 2013)
Entries after “also recorded” stand apart in the source; their conditions may differ. Each block holds one compound with its values, some of them ahead of it.

Experiments:
[1] = test system: BP3 cell line; test: Apoptosis, Annexin V-FITC and propidium iodide assay, BP3; type: cell-based, human
Method: The apoptotic activity of the compounds against BP3 cells was assessed by staining with Annexin V- and propidium iodide (PI). BP3 cell line was cultured in RPMI 1640 medium (Mediatech Inc., Herndon, Va. 20171) containing 10% fetal bovine serum (Mediatech Inc., Herndon, Va. 20171) and Penicillin/Streptomycin (Mediatech Inc., Herndon, Va. 20171). […] The percentage of viable cells was determined by FITC-Annexin V- and propidium iodide (PI)-labeling, using an Apoptosis Detection kit (BioVision Inc.), and analyzing stained cells by flow cytometry (FACSort; Bectin-Dickinson, Inc.; Mountain View, Calif.). Cells that were annexin-V-negative and PI-negative were considered viable.

[2] = test system: cancer cells that overexpress Mcl-1; conditions: references 32, 36; cited from earlier work
[3] = biological target: T1, Bcl-XL (Homo sapiens, UniProt Q07817); test: Isothermal Titration Calorimetry assay (ITC); type: binding; conditions: Kd ratio versus 12-14
T1 sequence (Q07817 whole entry): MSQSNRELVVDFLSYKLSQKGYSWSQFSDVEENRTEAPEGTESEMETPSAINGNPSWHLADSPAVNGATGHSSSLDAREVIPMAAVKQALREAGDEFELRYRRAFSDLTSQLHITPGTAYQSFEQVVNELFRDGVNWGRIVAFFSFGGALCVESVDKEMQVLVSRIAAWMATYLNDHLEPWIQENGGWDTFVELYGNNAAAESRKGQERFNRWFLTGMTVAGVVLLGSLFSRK

[4] = In vitro rat plasma stability; type: in vitro ADME
Description: (§1) Next, we examined the pharmacological properties of the isomers as chirality could greatly affect such properties due to stereoselective metabolism. To test the pharmacological properties of diastereoisomers 11-14, we determined their in vitro rat plasma stability, rat microsomal stability, and cell membrane permeability (Table 4).

[5] = rat, 40 min
Description: as §1

[6] = Cell membrane permeability (PAMPA, LogPe); type: in vitro ADME; conditions: compared to 12-14
Description: as §1

[7] = test system: wild type mouse embryonic fibroblast cells (MEF/WT); test: Apoptosis, FITC-Annexin V/PI assay, MEF/WT; type: cell-based; conditions: 30 μM
Method: (§2) Wild-type MEF and DKO/MEF were seeded in 24-well plate at a seeding density of half a million per well (in 1 ml of DMEM medium supplemented by 10% FCS). Next day, compound was added to wild-type and DKO cells at final concentration of 0, 2.5, 5.0, 7.5, 10 and 30 μM. On the following day, floating cells were pooled with adherent cells harvested after brief incubation with 0.25% Trypsin/EDTA solution (Gibco/In-Vitrogen Inc.). Cells were centrifuged and supernatant was discarded, and cell pellet was re-suspended with 0.2 ml of Annexin-V binding buffer, followed by addition of 1 μl Annexin-FITC and 1 μl PI (propidium iodide). The percentage of viable cells was determined by a 3-color FACSort instrument and data analyzed by Flow-Jo program, scoring Annexin V-negative, PI-negative as viable cells.

[8] = test system: Bax/Bak double knockout MEF cells (MEF/DKO); test: Apoptosis, FITC-Annexin V/PI assay, MEF/DKO; type: cell-based, mouse; conditions: for toxicity in MEF/DKO cells: 30 μM, FITC-Annexin V/PI
Method: as §2, with “Next day, compound was added to wild-type and DKO cells at final concentration of 0, 2.5, 5.0, 7.5, 10 and 30 μM.” left out

[9] = test system: Bcl-2 transgenic mice (B6Bcl2); test: Bcl-2 transgenic mice, spleen weight; type: in vivo, mouse; conditions: for in vivo activity in Bcl-2 transgenic mice: single i.p. 42 mg/kg
Method: Transgenic mice expressing Bcl-2 have been described as the B6 line.^48 The BCL-2 transgene represents a minigene version of a t(14;18) translocation in which the human BCL-2 gene is fused with the immunoglobulin heavy-chain (IgH) locus and associated IgH enhancer. The transgene was propagated on the Balb/c background.
After 24 hours, B6Bcl2 mice were sacrificed by intraperitoneal injection of lethal dose of Avertin. Spleen was removed and weighed.

[10] = test system: M2182 cells; test: Prostate cancer xenograft in athymic nude mice; type: in vivo, mouse; conditions: for inhibitory effect of tumor size compared with the control group: all doses, i.p. every 2 days
Method: Cells were then selected for 2 weeks in 200 μg/ml of hygromycin, and individual colonies were isolated, expanded, and maintained in 5 μg/m1 hygromycin. The overexpression of luciferase in these clones was confirmed by measuring luciferase activity.
M2182-Luc cells (1×10^6) were injected s.c. in 100 μL of PBS in the left and right flanks of male athymic nude mice (NCR^nu/nu, 4 weeks old, 20 g body weight) as described previously.^40 After establishing visible tumors of ˜75-mm^3, requiring ˜5-6 days, compound dissolved in 500 μL of solvent (ethanol/Cremophor EL/saline=10:10:80) were injected intraperitoneally (i.p.). The injections were given every 2 days for a total of nine injections. […] A minimum of five animals was used per experimental condition. For in vivo imaging of tumors, the mice were anesthetized and injected i.p. with 150 mg/kg luciferin and light emitted from each tumor was determined using a Xenogen system with CCD camera with an integration time of 1 min. Luminescence measurements were made using Living Image software (version 2.50.1; Xenogen). At the end of the experiment, the animals were sacrificed, and the tumors were removed and photographed.

[11] = biological target: T1, Bcl-XL; test: NMR binding assays (1D 1H-NMR, 2D [15N,1H]-TROSY), Bcl-XL; conditions: 2D TROSY at ligand/protein ratio 1:1
[12] = biological target: Mcl-1 (Homo sapiens, UniProt Q07820); test: 2D [15N,1H]-TROSY NMR binding, Mcl-1; conditions: 2D TROSY, ligand/protein ratio of 2:1
Mcl-1, sequence (Q07820 whole entry): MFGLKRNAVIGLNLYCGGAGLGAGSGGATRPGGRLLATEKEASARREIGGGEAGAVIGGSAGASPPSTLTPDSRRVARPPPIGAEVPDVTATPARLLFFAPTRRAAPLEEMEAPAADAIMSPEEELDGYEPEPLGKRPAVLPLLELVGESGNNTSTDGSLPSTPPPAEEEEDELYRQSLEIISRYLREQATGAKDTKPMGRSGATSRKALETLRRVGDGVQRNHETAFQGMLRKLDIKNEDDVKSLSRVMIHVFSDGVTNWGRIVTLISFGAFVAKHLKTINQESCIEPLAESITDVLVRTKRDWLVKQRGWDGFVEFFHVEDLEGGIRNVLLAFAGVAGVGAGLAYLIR

[13] = Chemical stability at different temperatures; type: physicochemical; conditions: compared to 12-14
[14] = test system: H460 cells; test: Cell viability, ATP-LITE assay, H460; type: cell-based, human; conditions: 72 hours of treatment
Method: The activity of the compounds against human cancer cell lines (PC3, H460, H1299) were assessed by using the ATP-LITE assay (PerkinElmer). All cells were seeded in either […] or RPMI1640 medium with 5 mM L-glutamine supplemented with 5% fetal bovine serum (Mediatech Inc.), penicillin and streptomycin (Omega). For maintenance, cells were cultured in 5% FBS. Cells plated into 96 well plates at varying initial densities depending on doubling time. […] Compounds were diluted to final concentrations with 0.1% DMSO. Prior to dispensing compounds onto cells, fresh 5% media was placed into wells. Administration of compounds occurred 24 hours after seeding into the fresh media. Cell viability was evaluated using ATP-LITE reagent (PerkinElmer) after 72 hours of treatment. Data were normalized to the DMSO control-treated cells using Prism version 5.01 (Graphpad Software).

[15] = test system: MDA-MB-231 breast cancer cells; conditions: reference 13; read-out: EC50 in killing MDA-MB-231 breast cancer cells; cited from earlier work

Compound: CN(C)CC[C@H](CSc1ccccc1)Nc1ccc(S(=O)(=O)NC(=O)c2ccc(N3CCN(Cc4ccccc4-c4ccc(Cl)cc4)CC3)cc2)cc1[N+](=O)[O-] [ABT-737]
apoptosis induction / cytotoxic activity against BP3 cell line [1]: no cytotoxic activity | effectiveness against cancer cells that overexpress Mcl-1 [2]: not effective

times more potent than other isomers 12-14 in ITC assay [3]: 4-20 times | Plasma stability (T = 1 h) [4]: 41% | microsomal stability [5]: relatively good microsomal stability | cell membrane permeability [6]: superior cell membrane permeability | NMR binding to Mcl-1 [12]: significant binding | chemical stability [13]: better chemical stability
Compound: Cc1cc2c(C(=O)NC[C@@H](C)c3ccccc3)c(O)c(O)cc2c(O)c1-c1c(C)cc2c(C(=O)NC[C@H](C)c3ccccc3)c(O)c(O)cc2c1O (atropisomer, axis not shown) [Compound 11]
wild type MEF cells killed [7]: ~70% | cytotoxicity against bax−/−bak−/− cells (summary statement) [8]: less cytotoxicity; also recorded: little cytotoxicity | toxicity in MEF/DKO cells [8]: slight toxicity | in vivo activity in Bcl-2 transgenic mice [9]: superior in vivo activity | spleen weight reduction ([9]; single i.p. injection at 42 mg/kg, 24 hours): more than 30% | tumor growth inhibited to % of the tumor volume in the control group ([10]; 3 mg/kg i.p. every 2 days, nine injections): ~60% | inhibition of tumor growth in both flanks ([10]; 5 mg/kg i.p. every 2 days, nine injections): near complete inhibition of tumor growth | inhibitory effect of tumor size compared with the control group [10]: marked inhibitory effect of tumor size | NMR binding to Bcl-XL [11]: larger chemical shift perturbations; also recorded: low to submicromolar binding affinity

Plasma stability (T = 1 h) [4]: 28%
Compound: Cc1cc2c(C(=O)NCC(C)c3ccccc3)c(O)c(O)cc2c(O)c1-c1c(C)cc2c(C(=O)NCC(C)c3ccccc3)c(O)c(O)cc2c1O (single isomer, unassigned) [Compound 12]
plasma stability ([4]; compared to other diastereoisomers): decreased plasma and microsomal stability | microsomal stability [5]: decreased plasma and microsomal stability | in vivo activity in Bcl-2 transgenic mice [9]: weak in vivo activity

Plasma stability (T = 1 h) [4]: 42%
Compound: Cc1cc2c(C(=O)NCC(C)c3ccccc3)c(O)c(O)cc2c(O)c1-c1c(C)cc2c(C(=O)NCC(C)c3ccccc3)c(O)c(O)cc2c1O (single isomer, unassigned) [Compound 13]

EC50 [14]: 0.8 ± 0.09 µM | Plasma stability (T = 1 h) [4]: 41%
Compound: Cc1cc2c(C(=O)NCC(C)c3ccccc3)c(O)c(O)cc2c(O)c1-c1c(C)cc2c(C(=O)NCC(C)c3ccccc3)c(O)c(O)cc2c1O (single isomer, unassigned) [Compound 14]
toxicity in MEF/DKO cells [8]: almost equally effective in killing both MEF/WT and MEF/DKO

Compound: Cc1cc2c(C(C)C)c(O)c(O)c(C=O)c2c(O)c1-c1c(C)cc2c(C(C)C)c(O)c(O)c(C=O)c2c1O [(+) 1]
EC50 [15]: ~10 µM

Compound: Cc1cc2c(C(=O)NCC(C)c3ccccc3)c(O)c(O)cc2c(O)c1-c1c(C)cc2c(C(=O)NCC(C)c3ccccc3)c(O)c(O)cc2c1O (racemic) [Compound 4]
cytotoxicity in MEF/DKO cells compared to isomer 11 ([8]; 3-30 μM): higher cytotoxicity in MEF/DKO cells | inhibitory effect of tumor size ([10]; 10 mg/kg i.p. every 2 days, nine injections): weak inhibitory effect of tumor size | inhibition of tumor growth in both flanks ([10]; 25 mg/kg i.p. every 2 days, nine injections): near complete inhibition of tumor growth | inhibitory effect of tumor size compared with the control group [10]: marked inhibitory effect of tumor size
